Results taken from patent US7615551B2, “Salicylate and gentisate salts of a piperazine compound” (Solvay Pharmaceuticals, B.V., priority 2005, dated 2009).

Columns and labels:
D2 receptors = D2 receptors (Homo sapiens, UniProt P14416); conditions: cited from earlier work
5HT reuptake = 5HT reuptake (Homo sapiens, UniProt P31645); conditions: in therapeutic models; cited from earlier work
[1] = in vivo; cited from earlier work
catalepsy = conditions: rodents; cited from earlier work
Water solubility = assay type: physicochemical; conditions: excess solid salt in water, equilibrated at least 24 hours, filtered, HPLC-UV; resulting pH 5.8
Method: Water solubility was determined by combining an excess amount of solid salt with ˜2 mL D1 water in a 4 mL glass screw-cap vial and equilibrating for at least 24 hours on an end-over-end rotator. The resulting suspensions were filtered through a 0.22 μm PVDF filter and assayed by high pressure liquid chromatography with quantitation by UV against standards of compound 1.

5HT reuptake, sequence (P31645 whole entry): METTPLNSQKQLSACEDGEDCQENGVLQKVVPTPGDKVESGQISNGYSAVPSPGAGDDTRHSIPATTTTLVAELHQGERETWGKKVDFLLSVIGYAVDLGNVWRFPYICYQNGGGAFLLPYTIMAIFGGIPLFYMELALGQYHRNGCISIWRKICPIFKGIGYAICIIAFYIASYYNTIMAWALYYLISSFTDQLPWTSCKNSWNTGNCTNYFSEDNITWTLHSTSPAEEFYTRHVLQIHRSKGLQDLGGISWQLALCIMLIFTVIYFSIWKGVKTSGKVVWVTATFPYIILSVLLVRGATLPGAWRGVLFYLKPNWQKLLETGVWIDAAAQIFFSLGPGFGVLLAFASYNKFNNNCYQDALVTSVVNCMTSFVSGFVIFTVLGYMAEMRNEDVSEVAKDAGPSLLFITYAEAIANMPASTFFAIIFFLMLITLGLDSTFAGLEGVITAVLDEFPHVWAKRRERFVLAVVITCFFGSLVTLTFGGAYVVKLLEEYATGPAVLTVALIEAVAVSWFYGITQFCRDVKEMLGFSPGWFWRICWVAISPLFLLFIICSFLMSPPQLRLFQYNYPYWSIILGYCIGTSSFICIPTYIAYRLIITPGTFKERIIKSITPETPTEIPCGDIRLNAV
D2 receptors, sequence (P14416 whole entry): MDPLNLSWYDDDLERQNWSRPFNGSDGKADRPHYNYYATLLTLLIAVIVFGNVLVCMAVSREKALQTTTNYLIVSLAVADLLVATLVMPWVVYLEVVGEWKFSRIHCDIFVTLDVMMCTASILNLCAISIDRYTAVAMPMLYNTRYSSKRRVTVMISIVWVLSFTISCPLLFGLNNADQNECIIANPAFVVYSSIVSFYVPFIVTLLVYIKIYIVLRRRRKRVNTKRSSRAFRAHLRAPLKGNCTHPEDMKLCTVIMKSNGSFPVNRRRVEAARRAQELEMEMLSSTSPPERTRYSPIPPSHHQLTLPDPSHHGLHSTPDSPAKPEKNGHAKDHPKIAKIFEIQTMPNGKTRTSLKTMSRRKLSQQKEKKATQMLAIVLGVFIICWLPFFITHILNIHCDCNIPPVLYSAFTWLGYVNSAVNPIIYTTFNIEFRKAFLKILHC

Row | SMILES | activity at D2 receptors (D2 receptors) | activity against 5HT reuptake (5HT reuptake) | activity in therapeutic models sensitive to antipsychotics, antidepressants, anxiolytics, Parkinson's disease [1] | propensity to induce catalepsy (catalepsy) | water solubility (Water solubility)
1 | CC1Oc2c(cccc2N2CCN(CCCc3c[nH]c4ccc(F)cc34)CC2)NC1=O (stereo not drawn) [compound 1, 8-{4-[3-(5-fluoro-1H-indol-3-yl)-propyl]-piperazin-1-yl}-2-methyl-4H-benzo[1,4]oxazin-3-one] | antagonistic activity | inhibitory activity | active | low propensity to induce catalepsy | 
2 | CC1Oc2c(cccc2N2CCN(CCCc3c[nH]c4ccc(F)cc34)CC2)NC1=O (stereo not drawn) [compound 2] |  |  |  |  | 1600 µg/mL (freebase equivalent)
3 | CC1Oc2c(cccc2N2CCN(CCCc3c[nH]c4ccc(F)cc34)CC2)NC1=O (stereo not drawn) [compound 3] |  |  |  |  | 500 µg/mL (freebase equivalent)
